In ChEMBL document CHEMBL5346907, “Discovery of a novel oral type Ⅰ CDK8 inhibitor against acute myeloid leukemia” (Eur J Med Chem, 2023):
Calls of active or inactive are those of the source. No cut-off for these calls is given here.

Assays:
HL-60 [1] = assay: Effect on cell cycle at S phase in human HL-60 cells at 1 to 10 uM incubated for 48 hrs by […]PI staining based flow cytometry; assay type: functional; conditions: dose 1-10 µM
[2] = molecular target: Tyrosine-protein kinase TXK (Homo sapiens) (UniProt P42681); assay: Inhibition of TXK (unknown origin) at 1 uM preincubated for 10 mins followed by substrate addition measured for 60 to 120 mins by HTRF assay relative to control; conditions: time 70-130 min
[3] = molecular target: Proto-oncogene tyrosine-protein kinase receptor Ret (Homo sapiens) (UniProt P07949); assay: Inhibition of RET (unknown origin) at 1 uM preincubated for 10 mins followed by substrate addition measured for 60 to 120 mins by HTRF assay relative to control; conditions: time 70-130 min
Proto-oncogene tyrosine-protein kinase receptor Ret (Homo sapiens), sequence (P07949 whole entry): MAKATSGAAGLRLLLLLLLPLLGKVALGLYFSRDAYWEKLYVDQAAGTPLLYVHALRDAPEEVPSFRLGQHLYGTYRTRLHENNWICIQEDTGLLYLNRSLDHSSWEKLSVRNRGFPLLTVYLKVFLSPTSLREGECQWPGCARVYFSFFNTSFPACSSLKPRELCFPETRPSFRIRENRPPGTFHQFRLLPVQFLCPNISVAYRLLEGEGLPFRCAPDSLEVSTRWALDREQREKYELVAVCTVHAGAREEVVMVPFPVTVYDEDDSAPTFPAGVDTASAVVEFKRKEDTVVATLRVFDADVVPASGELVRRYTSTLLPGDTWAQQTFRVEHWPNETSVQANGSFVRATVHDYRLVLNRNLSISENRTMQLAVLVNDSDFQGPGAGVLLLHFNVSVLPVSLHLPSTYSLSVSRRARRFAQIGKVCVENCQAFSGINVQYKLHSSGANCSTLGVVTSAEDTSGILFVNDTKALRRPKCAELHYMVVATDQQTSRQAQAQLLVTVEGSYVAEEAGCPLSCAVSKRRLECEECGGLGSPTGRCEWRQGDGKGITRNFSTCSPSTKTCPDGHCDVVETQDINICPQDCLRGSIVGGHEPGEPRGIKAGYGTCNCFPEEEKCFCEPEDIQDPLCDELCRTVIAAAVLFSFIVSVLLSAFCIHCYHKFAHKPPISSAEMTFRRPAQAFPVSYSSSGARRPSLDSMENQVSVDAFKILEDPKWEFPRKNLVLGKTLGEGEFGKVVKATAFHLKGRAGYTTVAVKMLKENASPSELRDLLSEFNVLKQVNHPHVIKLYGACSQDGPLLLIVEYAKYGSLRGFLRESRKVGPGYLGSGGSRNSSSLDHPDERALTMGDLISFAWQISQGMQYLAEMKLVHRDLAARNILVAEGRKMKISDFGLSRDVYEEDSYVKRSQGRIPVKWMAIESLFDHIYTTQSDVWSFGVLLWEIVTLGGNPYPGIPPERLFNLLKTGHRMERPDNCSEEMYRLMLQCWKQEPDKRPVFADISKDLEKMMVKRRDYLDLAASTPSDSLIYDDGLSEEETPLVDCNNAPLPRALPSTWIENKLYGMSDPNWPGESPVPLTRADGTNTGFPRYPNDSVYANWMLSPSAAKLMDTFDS

[4] = molecular target: Tyrosine-protein kinase SRMS (Homo sapiens) (UniProt Q9H3Y6); assay: Inhibition of SRM (unknown origin) at 1 uM preincubated for 10 mins followed by substrate addition measured for 60 to 120 mins by HTRF assay relative to control; conditions: time 70-130 min
[5] = Clearance in Sprague-Dawley rat at 2 mg/kg, iv; assay type: ADME, organism-based; conditions: in vivo
HL-60 [6] = assay: Induction of apoptosis in human HL-60 cells assessed as early apoptosis cells at 10 uM incubated for 48 hrs by annexin V-FITC/PI staining based flow cytometry (reference value: 2.08 %); assay type: functional
[7] = Cmax in Sprague-Dawley rat at 10 mg/kg, po; assay type: ADME, organism-based; design: dose 10 mg/kg, route po; conditions: in vivo
GES1 = assay: Antiproliferative activity against human GES1 cells incubated for 48 hrs by CCK8 assay; assay type: functional
[8] = molecular target: Tyrosine-protein kinase CSK (Homo sapiens) (UniProt P41240); assay: Inhibition of CSK (unknown origin) at 1 uM preincubated for 10 mins followed by substrate addition measured for 60 to 120 mins by HTRF assay relative to control; conditions: time 70-130 min
Tyrosine-protein kinase CSK (Homo sapiens), sequence (P41240 2-450 limits assumed): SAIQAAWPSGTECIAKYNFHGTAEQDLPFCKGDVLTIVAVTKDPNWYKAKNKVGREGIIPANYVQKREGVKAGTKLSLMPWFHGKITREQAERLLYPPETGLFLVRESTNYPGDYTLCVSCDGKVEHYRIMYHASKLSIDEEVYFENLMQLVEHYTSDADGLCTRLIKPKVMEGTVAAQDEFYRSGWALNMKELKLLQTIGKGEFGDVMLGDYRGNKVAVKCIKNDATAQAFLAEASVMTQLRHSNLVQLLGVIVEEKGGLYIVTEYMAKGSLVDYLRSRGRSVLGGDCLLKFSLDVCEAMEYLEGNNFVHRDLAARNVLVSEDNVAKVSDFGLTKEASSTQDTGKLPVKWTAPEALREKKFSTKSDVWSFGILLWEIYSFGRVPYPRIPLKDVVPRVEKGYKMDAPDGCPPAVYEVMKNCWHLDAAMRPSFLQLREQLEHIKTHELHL

[9] = molecular target: Ephrin type-A receptor 4 (Homo sapiens) (UniProt P54764); assay: Inhibition of EPHA4 (unknown origin) at 1 uM preincubated for 10 mins followed by substrate addition measured for 60 to 120 mins by HTRF assay relative to control; conditions: time 70-130 min
Ephrin type-A receptor 4 (Homo sapiens), sequence (P54764 whole entry): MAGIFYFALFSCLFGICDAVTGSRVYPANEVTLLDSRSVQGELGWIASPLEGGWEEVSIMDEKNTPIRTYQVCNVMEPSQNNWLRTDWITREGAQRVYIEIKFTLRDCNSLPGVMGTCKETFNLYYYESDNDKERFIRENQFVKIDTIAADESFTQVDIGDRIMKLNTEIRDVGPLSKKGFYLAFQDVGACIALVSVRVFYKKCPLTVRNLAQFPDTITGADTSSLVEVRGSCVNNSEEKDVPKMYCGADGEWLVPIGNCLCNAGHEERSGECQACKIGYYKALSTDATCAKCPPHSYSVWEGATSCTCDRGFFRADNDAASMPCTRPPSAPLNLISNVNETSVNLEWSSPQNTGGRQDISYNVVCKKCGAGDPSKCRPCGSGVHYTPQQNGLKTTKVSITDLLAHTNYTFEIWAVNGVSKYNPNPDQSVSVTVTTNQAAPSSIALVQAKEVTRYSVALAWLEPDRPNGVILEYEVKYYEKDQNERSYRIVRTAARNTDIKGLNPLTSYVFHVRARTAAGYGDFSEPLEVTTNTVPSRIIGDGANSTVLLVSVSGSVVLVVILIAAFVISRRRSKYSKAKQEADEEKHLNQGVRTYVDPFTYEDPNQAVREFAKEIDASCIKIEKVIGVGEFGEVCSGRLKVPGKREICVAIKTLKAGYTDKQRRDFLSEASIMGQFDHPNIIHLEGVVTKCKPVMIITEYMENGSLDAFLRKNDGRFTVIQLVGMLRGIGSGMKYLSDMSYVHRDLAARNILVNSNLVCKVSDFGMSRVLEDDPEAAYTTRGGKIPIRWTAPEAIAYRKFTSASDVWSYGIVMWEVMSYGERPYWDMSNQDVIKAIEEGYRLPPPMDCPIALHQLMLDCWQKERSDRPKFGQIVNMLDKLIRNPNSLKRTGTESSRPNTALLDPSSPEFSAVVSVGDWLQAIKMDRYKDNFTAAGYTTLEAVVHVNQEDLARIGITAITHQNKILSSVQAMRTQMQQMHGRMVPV

[10] = molecular target: Tyrosine-protein kinase Fgr (Homo sapiens) (UniProt P09769); assay: Inhibition of FGR (unknown origin) at 1 uM preincubated for 10 mins followed by substrate addition measured for 60 to 120 mins by HTRF assay relative to control; conditions: time 70-130 min
HL-60 [11] = assay: Induction of apoptosis in human HL-60 cells assessed as necrotic cells at 1 uM incubated for 48 hrs by annexin V-FITC/PI staining based flow cytometry (reference value: 0.26 %); assay type: functional
[12] = Acute toxicity in C57BL/6 mouse assessed as histopathological change in spleen at 2000 mg/kg, IG measured for 14 days by H&E staining based analysis; assay type: organism-based; conditions: in vivo, po, 336 h, time 14 day
[13] = molecular target: Mast/stem cell growth factor receptor Kit (Homo sapiens) (UniProt P10721); assay: Inhibition of KIT (unknown origin) at 1 uM preincubated for 10 mins followed by substrate addition measured for 60 to 120 mins by HTRF assay relative to control; conditions: time 70-130 min
[14] = molecular target: CDK18/Cyclin Y (Homo sapiens) (UniProt Q07002+Q8ND76); assay: Inhibition of CDK18/CyclinY (unknown origin) at 1 uM preincubated for 10 mins followed by substrate addition measured for 60 to 120 mins by HTRF assay relative to control; assay type: protein-complex assay; conditions: time 70-130 min
[15] = Toxicity in AML […] mouse model allografted with mouse C1498 cells assessed as body weight loss at 40 to 80 mg/kg, po administered daily for 15 days measured on every 2 days; assay type: organism-based; conditions: in vivo, 360 h, dose 40-80 mg/kg, time 15 day
[16] = molecular target: Tyrosine-protein kinase Fyn (Homo sapiens) (UniProt P06241); assay: Inhibition of FYN b (unknown origin) at 1 uM preincubated for 10 mins followed by substrate addition measured for 60 to 120 mins by HTRF assay relative to control; conditions: time 70-130 min
HT-29 = assay: Antiproliferative activity against human HT-29 cells incubated for 48 hrs by CCK8 assay; assay type: functional
[17] = molecular target: Cyclin-dependent kinase 8 (Homo sapiens, UniProt P49336); assay: Inhibition of CDK8 (unknown origin) in presence of ATP by ADP-Glo assay
[18] = molecular target: Tyrosine-protein kinase JAK1 (Homo sapiens) (UniProt P23458); assay: Inhibition of JAK1 (unknown origin) at 1 uM preincubated for 10 mins followed by substrate addition measured for 60 to 120 mins by HTRF assay relative to control; conditions: time 70-130 min
Tyrosine-protein kinase JAK1 (Homo sapiens), sequence (P23458 whole entry): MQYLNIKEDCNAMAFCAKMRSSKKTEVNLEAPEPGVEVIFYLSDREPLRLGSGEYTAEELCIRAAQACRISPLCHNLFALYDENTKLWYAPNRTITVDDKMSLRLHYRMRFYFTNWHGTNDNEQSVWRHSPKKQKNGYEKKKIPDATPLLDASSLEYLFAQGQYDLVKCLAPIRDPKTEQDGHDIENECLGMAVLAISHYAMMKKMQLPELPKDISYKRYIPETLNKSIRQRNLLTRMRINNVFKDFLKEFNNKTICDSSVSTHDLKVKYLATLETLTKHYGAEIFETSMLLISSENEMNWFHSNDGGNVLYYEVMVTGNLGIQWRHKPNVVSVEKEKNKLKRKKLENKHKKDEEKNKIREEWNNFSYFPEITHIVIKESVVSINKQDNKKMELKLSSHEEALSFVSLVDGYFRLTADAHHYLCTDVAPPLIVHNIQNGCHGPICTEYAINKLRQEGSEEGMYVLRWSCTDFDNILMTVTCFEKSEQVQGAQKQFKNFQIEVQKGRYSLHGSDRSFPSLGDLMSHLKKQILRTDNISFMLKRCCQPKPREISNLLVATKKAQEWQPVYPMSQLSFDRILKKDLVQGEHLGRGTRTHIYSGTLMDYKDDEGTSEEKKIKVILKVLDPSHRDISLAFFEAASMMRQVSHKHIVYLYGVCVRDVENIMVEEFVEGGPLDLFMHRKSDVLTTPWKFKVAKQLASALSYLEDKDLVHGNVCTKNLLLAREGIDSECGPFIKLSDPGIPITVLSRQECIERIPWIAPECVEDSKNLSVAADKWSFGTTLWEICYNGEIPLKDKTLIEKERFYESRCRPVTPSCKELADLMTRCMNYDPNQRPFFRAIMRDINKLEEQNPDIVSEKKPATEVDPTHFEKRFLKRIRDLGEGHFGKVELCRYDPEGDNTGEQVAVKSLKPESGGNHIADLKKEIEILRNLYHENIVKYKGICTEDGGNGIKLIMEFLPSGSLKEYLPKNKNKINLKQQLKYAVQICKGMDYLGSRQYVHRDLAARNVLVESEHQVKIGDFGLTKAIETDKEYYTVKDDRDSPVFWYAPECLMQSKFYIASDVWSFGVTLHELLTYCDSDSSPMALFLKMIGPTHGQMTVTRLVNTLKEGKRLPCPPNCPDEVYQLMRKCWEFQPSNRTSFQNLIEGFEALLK

[19] = molecular target: Non-receptor tyrosine-protein kinase TYK2 (Homo sapiens) (UniProt P29597); assay: Inhibition of TYK2 (unknown origin) at 1 uM preincubated for 10 mins followed by substrate addition measured for 60 to 120 mins by HTRF assay relative to control; conditions: time 70-130 min
[20] = molecular target: Ephrin type-A receptor 8 (Homo sapiens) (UniProt P29322); assay: Inhibition of EPHA8 (unknown origin) at 1 uM preincubated for 10 mins followed by substrate addition measured for 60 to 120 mins by HTRF assay relative to control; conditions: time 70-130 min
Ephrin type-A receptor 8 (Homo sapiens), sequence (P29322 whole entry): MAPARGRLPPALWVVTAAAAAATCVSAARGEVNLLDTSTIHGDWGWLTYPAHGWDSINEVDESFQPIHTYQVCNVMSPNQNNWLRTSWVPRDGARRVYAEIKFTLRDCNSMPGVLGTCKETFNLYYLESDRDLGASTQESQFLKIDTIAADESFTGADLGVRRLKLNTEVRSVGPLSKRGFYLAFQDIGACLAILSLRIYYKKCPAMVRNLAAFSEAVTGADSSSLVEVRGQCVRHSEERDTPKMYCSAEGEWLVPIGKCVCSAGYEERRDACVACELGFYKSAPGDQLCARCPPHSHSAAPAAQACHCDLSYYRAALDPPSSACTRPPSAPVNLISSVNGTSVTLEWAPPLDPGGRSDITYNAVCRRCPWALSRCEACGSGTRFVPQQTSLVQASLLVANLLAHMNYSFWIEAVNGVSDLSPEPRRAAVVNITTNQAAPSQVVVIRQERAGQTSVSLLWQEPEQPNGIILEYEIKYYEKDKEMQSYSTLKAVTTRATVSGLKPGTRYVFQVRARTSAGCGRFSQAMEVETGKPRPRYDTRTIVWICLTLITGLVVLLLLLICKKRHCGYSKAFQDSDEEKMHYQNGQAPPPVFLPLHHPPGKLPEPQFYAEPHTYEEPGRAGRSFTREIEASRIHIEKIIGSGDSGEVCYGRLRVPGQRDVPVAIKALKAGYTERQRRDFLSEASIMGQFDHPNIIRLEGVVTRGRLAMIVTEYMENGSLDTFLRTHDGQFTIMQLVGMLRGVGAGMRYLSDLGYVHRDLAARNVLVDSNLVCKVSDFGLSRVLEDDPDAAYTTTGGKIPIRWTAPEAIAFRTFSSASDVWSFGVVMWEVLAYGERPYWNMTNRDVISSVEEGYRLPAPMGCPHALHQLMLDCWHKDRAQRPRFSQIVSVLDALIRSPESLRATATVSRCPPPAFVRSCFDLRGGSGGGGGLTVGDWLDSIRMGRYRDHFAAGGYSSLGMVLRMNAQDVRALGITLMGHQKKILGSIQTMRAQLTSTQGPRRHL

[21] = Clearance in Sprague-Dawley rat at 10 mg/kg, po; assay type: ADME, organism-based; conditions: in vivo
[22] = molecular target: Tyrosine-protein kinase ABL1 (Homo sapiens) (UniProt P00519); assay: Inhibition of ABL1 (unknown origin) at 1 uM preincubated for 10 mins followed by substrate addition measured for 60 to 120 mins by HTRF assay relative to control; conditions: time 70-130 min
[23] = Half life in Sprague-Dawley rat at 10 mg/kg, po; assay type: ADME, organism-based; conditions: in vivo
[24] = molecular target: Fibroblast growth factor receptor 3 (Homo sapiens) (UniProt P22607); assay: Inhibition of FGFR3 (unknown origin) at 1 uM preincubated for 10 mins followed by substrate addition measured for 60 to 120 mins by HTRF assay relative to control; conditions: time 70-130 min
A549 = assay: Antiproliferative activity against human A549 cells incubated for 48 hrs by CCK8 assay; assay type: functional
HL-60 [25] = assay: Induction of apoptosis in human HL-60 cells assessed as viable cells at 5 uM incubated for 48 hrs by annexin V-FITC/PI staining based flow cytometry (reference value: 96.5 %); assay type: functional; conditions: read-out: Activity
[26] = Tmax in Sprague-Dawley rat at 2 mg/kg, iv; assay type: ADME, organism-based; conditions: in vivo
[27] = molecular target: Cyclin-dependent kinase 2/cyclin E1 (Homo sapiens, UniProt P24941); assay: Inhibition of CDK2/Cyclin E1 (unknown origin) preincubated for 10 mins followed by substrate addition measured for 60 to 120 mins by HTRF assay; assay type: protein-complex assay
SW480 = assay: Antiproliferative activity against human SW480 cells incubated for 48 hrs by CCK8 assay; assay type: functional
[28] = molecular target: Ephrin type-A receptor 3 (Homo sapiens) (UniProt P29320); assay: Inhibition of EPHA3 (unknown origin) at 1 uM preincubated for 10 mins followed by substrate addition measured for 60 to 120 mins by HTRF assay relative to control; conditions: time 70-130 min
A-375 = assay: Antiproliferative activity against human A-375 cells incubated for 48 hrs by CCK8 assay; assay type: functional
[29] = Acute toxicity in C57BL/6 mouse assessed as histopathological change in liver at 2000 mg/kg, IG measured for 14 days by H&E staining based analysis; assay type: organism-based; conditions: in vivo, po, 336 h, time 14 day

In the case of `NC(=O)c1cccc(-c2cnc3[nH]ccc3c2)c1`, the Activity (HL-60 [1]) is reported as “inactive”, the inhibition [2] is reported as 0% and the inhibition [3] is reported as 23.9%. The inhibition [4] was 0%, the clearance [5] was 118 mL/min/kg and the Activity (HL-60 [6]) was 0.15%. It also gave a Cmax [7] of 206 ng/mL, a GI50 (GES1) of over 100 µM and an inhibition [8] of 0%. The inhibition [9] was 1.96%, the inhibition [10] was 14.9% and the Activity (HL-60 [11]) was 5.04%. The Activity [12] was “Non-Toxic”, the inhibition [13] was 0% and the inhibition [14] was 3.47%. The Activity [15] was “Non-Toxic”, the inhibition [16] was 24.8% and the GI50 (HT-29) was over 50 µM. The IC50 [17] was 0.0519 µM, the inhibition [18] was 31.5% and the inhibition [19] was 0%. For the same molecule, the inhibition [20] was 0%, the CL/F [21] was 285 mL/min/kg and the inhibition [22] was 0%. For the same molecule, the half-life [23] was 84 min, the inhibition [24] was 10.8% and the GI50 (A549) was over 50 µM. It also gave a viability at 5 µM (HL-60 [25]) of 9.73%, a Tmax [26] of 4.98 min and an IC50 [27] of over 1 µM. It also gave a GI50 (SW480) of over 50 µM, an inhibition [28] of 0% and a GI50 (A-375) of over 50 µM. The Activity [29] was “Non-Toxic”.
